Legend:
hTERT-RPE1 cells [1] = test: growth factor-induced disassembly of cilia in hTERT-RPE1 cells; assay type: cell-based; settings: 10 ng/ml
Method: FIG. 4. Growth factor-induced disassembly of cilia in hTERT-RPE1 cells. A. Time course of disassembly of cilia in cells treated with EGF, PDGF, and TGF-β. […] B. Western blot indicating T288-phosphorylated and total AurA in cells treated with PDGF or EGF, at times indicated after treatment. C. Immunofluorescence depicting cilia (red, acetylated a α-tubulin) and phospho-AurA (green) staining at the basal body at 2 hours after stimulation with PDGF, EGF, or serum. Phosphorylated AurA is apparent in PDGF- and serum-treated cells, but not EGF-treated cells: further, many well-formed cilia are apparent in EGF-treated cells (marked with asterisks) in contrast to other conditions. Scale bar represents […].
hTERT-RPE1 cells were grown in DMEM with 10% fetal bovine serum (FBS). For analysis of ciliary disassembly, cells were plated at 30% confluence in plates containing glass cover slips, and starved for 48 hours (in Opti-MEM or regular DMEM, without added serum) to induce cilia formation, followed by treatments described hereinbelow. […] The remaining cells on plate were lysed, then either directly analyzed by Western blot analysis, or used for immunoprecipitation (IP)-kinase reaction to measure AurA activity.

hTERT-RPE1 cells [2] = test: serum-induced ciliary disassembly in ciliated hTERT-RPE1 cells; assay type: cell-based; settings: compounds added 2 hours prior to induction; tubacin and niltubacin 2 μM, GSK3 inhibitor 2 μM, FTI-277 50 nM
Method: hTERT-RPE1 cells were grown in DMEM with 10% fetal bovine serum (FBS). For analysis of ciliary disassembly, cells were plated at 30% confluence in plates containing glass cover slips, and starved for 48 hours (in Opti-MEM or regular DMEM, without added serum) to induce cilia formation, followed by treatments described hereinbelow. For siRNA treatment, cells were initially plated in DMEM/10% FBS in plates containing cover slips, and 12 hours later siRNA transfection was performed in Opti-MEM with Oligofectamine (Invitrogen) according to manufacturer recommendations, and fixed 48 hours after transfection, following treatments indicated in Results. The remaining cells on plate were lysed, then either directly analyzed by Western blot analysis, or used for immunoprecipitation (IP)-kinase reaction to measure AurA activity.
Cells were fixed with 4% paraformaldehyde (10 min) then methanol (5 min), permeabilized with 1% Triton-X100 in PBS, blocked in 1×PBS, 3% BSA, and incubated with antibodies using standard protocols. Primary antibodies included rabbit polyclonal anti-Aurora A and anti-phospho-AuroraA/T288, (Cell Signaling), mouse mAb anti-HEF1 (14A11), polyclonal anti-γ-tubulin (Sigma), anti-α-tubulin mAb (Sigma), anti-acetylated α-tubulin mAb (clone 6-11B-1, Sigma, and clone K(Ac)40 Biomol), anti-IFT88 and anti-IFT20 (gifts of G. Pazour), mouse anti-glutamylated tubulin (Sigma), and anti-HDAC6 (Upstate). Secondary antibodies labeled with Alexa-488, Alexa-568, and Alexa-633, and TOTO-3 dye to stain DNA, were from Molecular Probes/Invitrogen. DNA was co-stained in some experiments by propidium iodine (Sigma) or Draq5 (Alexis), Confocal microscopy was performed using a Radiance 2000 laser scanning confocal microscope ((Carl Zeiss, Thornwood, N.Y.) coupled to a Nikon Eclipse E800 upright microscope (Nikon). Statistical analysis of data by one-way ANOVA was performed using GraphPad Instat 3.0 (San Diego, Calif.).

acetylated tubulin = test: intracellular levels of acetylated tubulin (Western blot); assay type: cell-based; settings: vs DMSO vehicle
Method: (§1) For microinjection, recombinant glutathione-S-transferase (GST), GST fused AurA mutants T288A and D274N) produced from BL21 (DE3) bacteria were purified using the MicroSpin GST Purification Module (Amersham Biotech.). Purified recombinant AurA was purchased from Upstate; this AurA was pre-activated based on incubation with ATP. […] To prepare lysates for Western blotting and IP, mammalian cells were disrupted by M-PER lysis buffer (Pierce) supplemented with EDTA-free protease inhibitor cocktail (Roche). Lysates used for IP were incubated overnight with antibody at 4° C., subsequently incubated for 2 hours with protein A/G-sepharose (Pierce), washed, and resolved by SDS-PAGE. Western blotting was performed using standard procedures and proteins visualized using the West-Pico system (Pierce). Antibodies used included mouse monoclonal antibody (mAb) anti-HEF1 2G9 (Pugacheva and Golemis, 2005), anti-α-tubulin mAb (Sigma), anti-AurA (BD Bioscience) for Western blotting, anti-AurA rabbit polyclonal (Cell Signaling) for IP, anti-Phospho-AurA/T288 (BioLegend), anti-Phospho-AurA/T288 (Cell Signaling), anti-HDAC6 rabbit polyclonal (Upstate; 1:5000), anti-HDAC2 rabbit polyclonal (Invitrogen) and mAb anti-β-actin (AC15, Sigma), anti-IFT88 and anti-IFT20. Secondary horseradish peroxidase (HRP)-conjugated antibodies were from Amersham Biotech.

hTERT-RPE1 cells [3] = test: FACS cell cycle profile after serum stimulation; assay type: cell-based
hTERT-RPE1 cells [4] = test: loss of cilia after microinjection of AurA proteins into ciliated hTERT-RPE1 cells; assay type: cell-based
Method: as §1
Microinjections were performed on a Nikon TE300 Microscope (Nikon, Melville, N.Y.) that was equipped with an Eppendorf Transjector 5246 semi-automatic microinjector and micromanipulator (Eppendorf, Westbury, N.Y.). […] Proteins were pre-filtered through a 0.2-μm Milliopore membrane and mixed with Dextran Green488 (Molecular Probes) to mark injected cells. Injected cells were incubated at 37° C. before fixation. Typically, 150 cells were microinjected in each of 3 experiments.

[5] = target: T1, in vitro translated and immunoprecipitated HDAC6, Q9UBN7
T1 chain: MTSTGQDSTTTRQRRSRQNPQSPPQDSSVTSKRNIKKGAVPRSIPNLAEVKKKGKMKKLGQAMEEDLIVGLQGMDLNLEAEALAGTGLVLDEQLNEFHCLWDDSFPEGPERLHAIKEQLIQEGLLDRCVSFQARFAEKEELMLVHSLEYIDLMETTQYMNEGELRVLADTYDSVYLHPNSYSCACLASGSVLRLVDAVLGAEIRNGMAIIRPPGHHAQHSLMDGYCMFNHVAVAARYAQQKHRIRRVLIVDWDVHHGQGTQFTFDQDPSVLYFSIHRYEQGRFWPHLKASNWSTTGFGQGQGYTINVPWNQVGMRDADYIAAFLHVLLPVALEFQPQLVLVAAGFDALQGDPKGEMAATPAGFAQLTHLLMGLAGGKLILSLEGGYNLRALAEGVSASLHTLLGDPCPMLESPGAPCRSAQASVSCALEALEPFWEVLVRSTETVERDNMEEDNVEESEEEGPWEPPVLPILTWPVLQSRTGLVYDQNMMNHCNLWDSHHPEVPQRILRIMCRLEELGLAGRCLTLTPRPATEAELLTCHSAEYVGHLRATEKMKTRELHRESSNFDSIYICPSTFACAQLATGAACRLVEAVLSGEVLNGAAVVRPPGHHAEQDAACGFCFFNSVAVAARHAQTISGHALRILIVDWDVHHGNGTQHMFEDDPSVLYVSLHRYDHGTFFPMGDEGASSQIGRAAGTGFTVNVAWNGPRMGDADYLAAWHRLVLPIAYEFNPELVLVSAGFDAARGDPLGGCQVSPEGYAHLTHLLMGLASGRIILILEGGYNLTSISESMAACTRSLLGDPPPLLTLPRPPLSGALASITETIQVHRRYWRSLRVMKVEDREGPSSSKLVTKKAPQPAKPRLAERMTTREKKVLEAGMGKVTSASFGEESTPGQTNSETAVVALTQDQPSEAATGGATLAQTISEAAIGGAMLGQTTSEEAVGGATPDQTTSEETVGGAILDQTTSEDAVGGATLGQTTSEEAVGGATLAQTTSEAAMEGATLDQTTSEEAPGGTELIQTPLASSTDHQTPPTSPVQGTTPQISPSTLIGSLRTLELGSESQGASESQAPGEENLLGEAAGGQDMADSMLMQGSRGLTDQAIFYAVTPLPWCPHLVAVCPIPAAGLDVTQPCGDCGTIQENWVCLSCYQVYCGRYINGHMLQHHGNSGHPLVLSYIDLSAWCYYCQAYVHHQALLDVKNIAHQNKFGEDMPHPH

[6] = target: recombinant glutathione-S-transferase (GST)
[7] = 0.05 μM protein microinjected, low serum medium

## PDGF
hTERT-RPE1 cells [1]
  ciliary disassembly response to growth factor: partial response

## O=C(O)CCCCCCC(=O)Nc1ccc([C@H]2O[C@@H](CSc3nc(-c4ccccc4)c(-c4ccccc4)o3)C[C@@H](c3ccc(CO)cc3)O2)cc1 [niltubacin]
hTERT-RPE1 cells [2]
  serum-induced ciliary disassembly: no effect
Acetylated tubulin
  levels of acetylated tubulin in treated cells: not

## O=C(CCCCCCC(=O)Nc1ccc([C@H]2O[C@@H](CSc3nc(-c4ccccc4)c(-c4ccccc4)o3)C[C@@H](c3ccc(CO)cc3)O2)cc1)NO [tubacin]
hTERT-RPE1 cells [2]
  serum-induced ciliary disassembly: completely blocked
hTERT-RPE1 cells [3]; 2 h
  cell cycle profile at 2 h after serum stimulation: neither tubacin treatment nor siRNA to HDAC6 influenced cell cycle profile
hTERT-RPE1 cells [3]; later time point (18-24 h)
  cell cycle profile at the later time point after serum stimulation: accumulation in G2
Acetylated tubulin
  levels of acetylated tubulin in treated cells: increased
hTERT-RPE1 cells [4]; cells pre-treated for 3 hours with tubacin before aAurA microinjection
  ability of microinjected AurA to disassemble cilia: substantially limited

## COC(=O)[C@H](CCSC)NC(=O)c1ccc(NC[C@@H](N)CS)cc1-c1ccccc1 [FTI]
hTERT-RPE1 cells [2]
  serum-induced ciliary disassembly: do not inhibit

## CC(/C=C/C(=O)NO)=C\[C@@H](C)C(=O)c1ccc(N(C)C)cc1 [trichostatin A (TSA), trichostatin A]
hTERT-RPE1 cells [2]
  serum-induced ciliary disassembly: completely blocked
Acetylated tubulin
  levels of acetylated tubulin in treated cells: increased

B1: recombinant activated AurA (Upstate) (protein)
chain: MDRSKENCISGPVKATAPVGGPKRVLVTQQFPCQNPLPVNSGQAQRVLCPSNSSQRIPLQAQKLVSSHKPVQNQKQKQLQATSVPHPVSRPLNNTQKSKQPLPSAPENNPEEELASKQKNEESKKRQWALEDFEIGRPLGKGKFGNVYLAREKQSKFILALKVLFKAQLEKAGVEHQLRREVEIQSHLRHPNILRLYGYFHDATRVYLILEYAPLGTVYRELQKLSKFDEQRTATYITELANALSYCHSKRVIHRDIKPENLLLGSAGELKIADFGWSVHAPSSRRTTLCGTLDYLPPEMIEGRMHDEKVDLWSLGVLCYEFLVGKPPFEANTYQETYKRISRVEFTFPDFVTEGARDLISRLLKHNPSQRPMLREVLEHPWITANSSKPSNCQNKESASKQS
[5]
  in vitro tubulin deacetylation assay: AurA-phosphorylated HDAC6 was much more potent than unphosphorylated HDAC6 in deacetylating α-tubulin
[6]
  in vitro kinase assay (32P autoradiography): AurA phosphorylated HDAC6, but not HDAC2 or the GST negative control
hTERT-RPE1 cells [4]; 0.05 μM protein microinjected, low serum medium, as soon as cells could be fixed
  injected cells lacking cilia: more than 80%

B2: D274N: D274N AurA, an inactive mutant (protein, UniProt O14965 1-403, looked up, variant D274N)
Aurora kinase A: MDRSKENCISGPVKATAPVGGPKRVLVTQQFPCQNPLPVNSGQAQRVLCPSNSSQRIPLQAQKLVSSHKPVQNQKQKQLQATSVPHPVSRPLNNTQKSKQPLPSAPENNPEEELASKQKNEESKKRQWALEDFEIGRPLGKGKFGNVYLAREKQSKFILALKVLFKAQLEKAGVEHQLRREVEIQSHLRHPNILRLYGYFHDATRVYLILEYAPLGTVYRELQKLSKFDEQRTATYITELANALSYCHSKRVIHRDIKPENLLLGSAGELKIANFGWSVHAPSSRRTTLCGTLDYLPPEMIEGRMHDEKVDLWSLGVLCYEFLVGKPPFEANTYQETYKRISRVEFTFPDFVTEGARDLISRLLKHNPSQRPMLREVLEHPWITANSSKPSNCQNKESASKQS
hTERT-RPE1 cells [4]; [7]
  loss of cilia after microinjection: did not induce loss of cilia

B3: T288A: T288A AurA, a hypomorphic mutant (protein, UniProt O14965 1-403, looked up, variant T288A)
Aurora kinase A: MDRSKENCISGPVKATAPVGGPKRVLVTQQFPCQNPLPVNSGQAQRVLCPSNSSQRIPLQAQKLVSSHKPVQNQKQKQLQATSVPHPVSRPLNNTQKSKQPLPSAPENNPEEELASKQKNEESKKRQWALEDFEIGRPLGKGKFGNVYLAREKQSKFILALKVLFKAQLEKAGVEHQLRREVEIQSHLRHPNILRLYGYFHDATRVYLILEYAPLGTVYRELQKLSKFDEQRTATYITELANALSYCHSKRVIHRDIKPENLLLGSAGELKIADFGWSVHAPSSRRTALCGTLDYLPPEMIEGRMHDEKVDLWSLGVLCYEFLVGKPPFEANTYQETYKRISRVEFTFPDFVTEGARDLISRLLKHNPSQRPMLREVLEHPWITANSSKPSNCQNKESASKQS
hTERT-RPE1 cells [4]; [7]
  loss of cilia after microinjection: eventual partial loss of cilia
